According to patent US7320785B2, “Compositions and methods for modulation of DARPP-32 phosphorylation” (The Rockefeller University, priority 2001, dated 2008):
Where two headings read alike, the source gives them in different places. Marks after values point to notes of the source that are not given here.

Assays:
[1] = test system: DARPP-32; experiment: DARPP-32 phosphorylation in mouse brain slices, immunoblotting with phosphorylation state-specific antibodies; details: for EC50 / activity at 100 µM: Mus musculus
[2] = test system: GluR1 subunit of the AMPA receptor; experiment: Phosphorylation of the GluR1 subunit of the AMPA receptor in slices from WT and DARPP-32 KO mice; assay type: cell-based, mouse
Procedure: In order to evaluate the involvement of DARPP-32 in the activity of serotonin, mice that lack DARPP-32 (DARPP-32 knockout (KO) mice) were used. In one set of experiments, striatal slices were prepared from normal mice (DARPP-32 wild-type) and DARPP-32 knockout mice and incubated with serotonin for 5 minutes. Experiments were then carried out to determine the levels of phospho-Ser845 of the GluR1 subunit of the AMPA (AMPA, α-amino-3-hydroxy-5-methyl-4-isoxazolepropionic acid) receptor.

[3] = test system: DARPP-32; experiment: Thr34-DARPP-32 phosphorylation in striatal slices from unilaterally 6-OHDA-lesioned rats; assay type: cell-based, rat
Procedure: Further experiments were conducted that provide evidence that activation of a serotonergic intracellular signaling pathway and of DARPP-32 has applicability in the treatment of Parkinson's disease. In these experiment, rats were unilaterally (i.e. in one hemisphere) injected with 6-OHDA (6-hydroxydopamine; a dopaminergic neurotoxin) according to standard methods. The 6-OHDA is selectively taken up by dopaminergic neurons and kills the neurons. Such 6-OHDA-lesioned animals are considered an animal model of Parkinson's disease. The 6-OHDA-lesioned animals were sacrificed, striatal slices were prepared, as described hereinabove, from the non-lesioned (i.e., “normal”) and the 6-OHDA-lesioned (i.e., “dopamine-depleted”) hemispheres, and used for striatal slice experiments according to the methods described hereinabove. 5-HT or saline (control) was administered according to the methods described hereinabove. […] The interpretation of these experiments is that 5-HT activates DARPP-32 phosphorylation via a mechanism that is largely independent of enhanced dopaminergic neurotransmission. Agents that enhance serotonergic neurotransmission, and that are stimulatory, can thus exert anti-Parkinsonian effects independent of dopamine, and can be used in the treatment of Parkinson's disease.

[4] = test system: DARPP-32; details: cited from earlier work
[5] = test system: c-fos mRNA; experiment: c-fos mRNA expression by in situ hybridization in WT and DARPP-32 KO mice; assay type: in vivo, mouse; details: 20 min postinjection
Procedure: Twenty minutes after the injections, the animals were killed by decapitation and their brains frozen at −80° C. Coronal sections were then made and processed for in situ hybridization experiments with a probe against c-fos mRNA. The expression of c-fos mRNA is widely used as a marker for the biochemical activity of neurons. Manipulations of the serotonergic system, by PCA (4 mg/kg) and 5-HTP (50 mg/kg+carbidopa 50 mg/kg), increased c-fos mRNA expression in several brain regions, including prefrontal cortex and striatum in DARPP-32 wild-type mice.

[6] = test system: WT and DARPP-32 KO mice; experiment: Locomotor activity measurements in activity monitors; assay type: in vivo, mouse
Procedure: Locomotor activity of WT and DARPP-32 KO mice was measured in activity monitors (43×44×45 cm) equipped with both horizontal and vertical sensors (Opto-Varimex, Columbus Instruments, Columbus, Ohio). Mice were acclimated to the boxes for 1 h, […] before the day of the experiment. The day of the experiment, mice were placed in the boxes for 20 min (habituation period) before drug administration. […] Locomotor activity parameters (distance traveled and stereotypic movements) were quantified by using the AutoTrack System (Columbus Instruments).

[7] = test system: DARPP-32; experiment: DARPP-32 phosphorylation in vivo in mice after i.p. injection, immunoblotting; set-up: species or system mouse; details: for phospho-Thr75 DARPP-32 / phospho-Thr34 DARPP-32: prefrontal cortex, 15 min
[8] = forced-swim test and tail suspension test; cited from earlier work
[9] = test system: depressed patients; details: several clinical trials; cited from earlier work
[10] = pNPP hydrolysis by recombinant PP2C isoforms (phosphatase assay); assay type: biochemical, rat; details: for Vmax / kcat / Km: pNPP as substrate; for Km: 37° C.
Procedure: The activity of PP2C isoforms using pNPP as substrate was assayed as previously described (Brumel et al., 1997). […] The reaction was stopped by addition of 1 ml of 0.1 M NaOH, and the initial rate of p-nitrophenol release was determined spectrophotometrically at 405 nm (using a molar extinction coefficient of 18 000 M−1 cm−1).
(§1) Kinetic parameters (Km and Vmax) were determined from Lineweaver-Burk plots.
Legend Table 7. Enzymatic activities of PP2C isoforms assayed using pNPP as substrate. Phosphatase activity was measured using pNPP as substrate by the change in absorbance at 405 nm. Km and Vmax values were calculated from Lineweaver-Burk plots of the data.

[11] = test system: phospho-Ser137-DARPP-32; experiment: Dephosphorylation of phospho-Ser137-DARPP-32 by recombinant PP2C isoforms; assay type: biochemical, rat; details: [^32P]phospho-Ser137 DARPP-32 as substrate; in the presence of 10 mM Mn^2+
Procedure: The activity of PP2C isoforms using ^32P-DARPP (phosphorylated at Ser137) was assayed at 37° C. in a reaction mixture containing 25 mM Tris-HCl, pH 7.5, 10 mM MnCl2, 1% BSA, and […] substrate, in a total volume of […]. Reactions were stopped by addition of […] of 50% trichloroacetic acid. Samples were then incubated on ice for 30 min and centrifuged at 10,000 g for 10 min at 4° C. Radioactivity recovered in the supernatant was measured by Cerenkov counting in a scintillation counter (Beckman).
as §1
Legend Table 8. Enzymatic activities of PP2C isoforms assayed using [^32P]phospho-Ser137 DARPP-32 as substrate. Phosphatase activity was measured by the release of ^32P, and Km and Vmax values were calculated from Lineweaver-Burk plots of the data.

[12] = nucleus accumbens slices, serotonin 100 μM, 2 min, n=12
[13] = slices from hippocampus, frontal cortex, striatum, WT mice, serotonin 100 μM, 10 min
[14] = striatal slices, serotonin for 5 minutes
[15] = 5-HTP 50 mg/kg + carbidopa 50 mg/kg
[16] = striatum, 4 mg/kg i.p., 15 min after injection

## NCCc1c[nH]c2ccc(O)cc12 [Serotonin]
[1]; 2 min, read-out: EC50 for effect on DARPP-32 phosphorylation at Ser137
  EC50: 37.6 µM
[1]; 2 min, read-out: EC50 for effect on DARPP-32 phosphorylation at Thr34
  EC50: 13.5 µM
[1]; 2 min, read-out: Percent Phospho-Ser137
  activity at 100 µM: 141%
[1]; 2 min, read-out: Percent Phospho-Thr34
  activity at 100 µM: 342%
[1]; 10 min, read-out: EC50 for effect on DARPP-32 phosphorylation at Thr75
  EC50: 29.6 µM
[1]; 10 min, read-out: Percent Phospho-Thr75
  activity at 100 µM: 76%
[1]; [12]
  phosphorylation at Ser137: 143±7%
  phosphorylation at Thr34: 307±25%
[1]; nucleus accumbens slices, serotonin, 10 min, n=12
  phosphorylation at Thr75: 75±6%
[1]; prefrontal cortex slices, 2 min of incubation, n=6
  phospho-Thr34 DARPP-32: 185±15%
[1]; prefrontal cortex slices, 10 min of incubation, n=6
  phospho-Thr75 DARPP-32: 85±3%
[2]; slices from DARPP-32 KO mice, serotonin 100 μM
  increased phosphorylation at Ser-845 GluR1, DARPP-32 KO versus WT: significantly reduced
[2]; [13]
  phosphorylation at Ser-831 GluR1: increased
  phosphorylation at Ser-845 GluR1: increased
[2]; [14]
  Ser845-GluR1 Levels, DARPP-32 Knockout: 111(14.9)# percentage of control
  Ser845-GluR1 Levels, DARPP-32 Wild-type: 199(22.7)* percentage of control
[3]; 6-OHDA lesioned hemisphere
  Percent Phospho-Thr34: 369(67.2)* Percent
[3]; Intact hemisphere
  Percent Phospho-Thr34: 306(50.7) Percent

## O=C(CCCN1CCC(O)(c2ccc(Cl)cc2)CC1)c1ccc(F)cc1 [haloperidol]
[4]; chronic administration in rats
  frontal cortex levels of DARPP-32 immunoreactivity: without effects

## N[C@@H](Cc1c[nH]c2ccc(O)cc12)C(=O)O [5-HTP, 5-hydroxytryptophan]
[5]; [15]
  c-fos mRNA Levels in Striatum, DARPP-32 Knockout: 0.092(0.009)#*
  c-fos mRNA Levels in Striatum, DARPP-32 Wild-type: 0.195(0.017)*
[6]; DARPP-32 KO mice, 5-HTP 50 mg/kg i.p. 30 min after carbidopa 50 mg/kg
  locomotor activity and stereotypic behavior: abolished
[6]; WT mice, 5-HTP 50 mg/kg i.p. 30 min after carbidopa 50 mg/kg
  locomotor activity and stereotypic behavior: robust increase
[7]; 5-HTP 50 mg/kg i.p. after carbidopa, n=5
  phospho-Thr75 DARPP-32: 74±8.0%
[7]; 5-HTP 50 mg/kg i.p. after carbidopa, n=5 mice
  phospho-Thr34 DARPP-32: 144±8.3%

## CC(N)Cc1ccc(Cl)cc1 (stereo not drawn) [PCA, para-chloroamphetamine]
[5]; PCA 4 mg/kg i.p.
  c-fos mRNA Levels in Striatum, DARPP-32 Knockout: 0.084(0.010)#*
  c-fos mRNA Levels in Striatum, DARPP-32 Wild-type: 0.181(0.021)*
[6]; DARPP-32 KO mice, PCA 4 mg/kg i.p.
  locomotor activity and stereotypic behavior: abolished
[6]; WT mice, PCA 4 mg/kg i.p., 50 min
  locomotor activity and stereotypic behavior: robust increase
[7]; PCA 4 mg/kg i.p., n=5 mice
  phospho-Thr34 DARPP-32: 147±4.8%
  phospho-Thr75 DARPP-32: 79±3.8%
[7]; [16]
  Percent Phospho-Ser137: 128(7.1)* Percent
  Percent Phospho-Thr34: 171(9.1)* Percent
  Percent Phospho-Thr75: 80.1(3.4)* Percent

## CC(CNS(=O)(=O)C(C)C)c1ccc(-c2ccsc2)cc1 (stereo not drawn) [LY392098]
[8]
  antidepressant-like actions: robust antidepressant-like actions

## N[C@@H]1C[C@H]1c1ccccc1 (racemic) [tranylcypromine]
[4]; rat, in vivo
  frontal cortex levels of DARPP-32 immunoreactivity: significant increases

## CN1CC[C@]23c4c5ccc(O)c4O[C@H]2[C@@H](O)C=C[C@H]3[C@H]1C5 [morphine]
[4]; rat, in vivo
  frontal cortex levels of DARPP-32 immunoreactivity: without effects

## COc1ccc(C2CNC(=O)C2)cc1OC1CCCC1 (stereo not drawn) [rolipram]
[9]
  anti-depressant efficacy: has anti-depressant efficacy

## CC(CNS(=O)(=O)C(C)C)c1ccc(-c2ccc(C#N)cc2)cc1 (stereo not drawn) [LY404187]
[8]
  antidepressant-like actions: robust antidepressant-like actions

## CN(C)CCCN1c2ccccc2CCc2ccccc21 [imipramine]
[4]; chronic administration in rats
  frontal cortex levels of DARPP-32 immunoreactivity: significant increases

B1: PP2Cg: recombinant his-tagged gamma isoform of protein phosphatase 2C cloned from rat striatum (protein)
chain: MGAYLSQPNTVKCSGDGVGAPRLPLPYGFSAMQGWRVSMEDAHNCIPELDNETAMFSVYDGHGGEEVALYCAKYLPDIIKDQKAYKEGKLQKALQDAFLAIDAKLTTDEVIKELAQIAGRPTEDEDDKEKVADEDDVDNEEAALLHEEATMTIEELLTRYGQNCQKGPPHTKSGTGIGDEPEPQGLNGEAGPEDPSRETPSQENGPTAKGHTGPSSNSDHGTEAGQIGEPGTATGEAGPSCSSASDKLPRVAKSKFFEDSEDESDEVEEEEDDSEECSEDEDGYSSEEAENEEDEDDTEEAEEDDDEEMMVPGMEGKEEPGSDSGTTAVVALIRGKQLIVANAGDSRCVVSEAGKALDMSYDHKPEDEVELARIKNAGGKVTMDGRVNGGLNLSRAIGDHFYKRNKNLPPQEQMISALPDIKVLTLTDDHEFMVIACDGIWNVMSSQEVVDFIQSKISQRDENGELRLLSSIVEELLDQCLAPDTSGDGTGCDNMTCIIICFKPRNTVELQPESGKRKLEEALSTEGAEENGNSDKKKAKRD
modifications: left off: small tags and cut ends
notes: recombinant his-tagged gamma isoform of protein phosphatase 2C cloned from rat striatum
[10]; 20 mM Mn^2+ versus 20 mM Mg^2+
  Vmax of pNPP hydrolysis, Mn^2+ compared to Mg^2+ (higher): 15 fold
[10]; Mn^2+ substitutes Mg^2+
  Km of pNPP hydrolysis, Mn^2+ compared to Mg^2+ (lower): 24 fold
[10]; in the presence of 20 mM Mg^2+
  Vmax: 0.09 µmol/mg/min
  kcat: 0.094 s⁻¹
  Km: 12800 µM
[10]; in the presence of 20 mM Mn^2+
  Vmax: 1.29 µmol/mg/min
  kcat: 1.35 s⁻¹
  Km: 520 µM
[11]
  Km: 7 µM
  Vmax: 0.31 µmol/mg/min
  kcat: 0.32 s⁻¹
